Laboratory results published in patent publication US20070212366A1, “Use Of Mrp4-Inhibitors For The Treatment And/Or Prophylaxis Of Cardiovascular Diseases” (ERNST-MORITZ-ARNDT-UNIVERSITAT GREIFSWALD, priority 2003, published 2007).

How the values were obtained:
MRP4 [1] = molecular target: T1, MRP4 (Homo sapiens, UniProt O15439); experiment: Inhibition of vanadate-sensitive [3H]ADP transport in dense platelet granules (vesicle rapid filtration); type: biochemical; details: for [^3H]ADP transport (% of control): dense platelet vesicles, [3H]ADP 1 μmol/l, 0.4 mmol/l ATP ± 1 mmol/l orthovanadate, 2 min, mean ± SD of 3; for vanadate-sensitive ADP accumulation in the dense granular fraction of the sucrose gradient: result in words, refers to Table 1
T1 construct: Dense platelet vesicles (100 μg of protein) were incubated with [3H]ADP; from tissue; host or cells: platelets (crude membrane vesicles; dense granule fraction of a sucrose gradient)
T1 sequence (O15439 1-1325): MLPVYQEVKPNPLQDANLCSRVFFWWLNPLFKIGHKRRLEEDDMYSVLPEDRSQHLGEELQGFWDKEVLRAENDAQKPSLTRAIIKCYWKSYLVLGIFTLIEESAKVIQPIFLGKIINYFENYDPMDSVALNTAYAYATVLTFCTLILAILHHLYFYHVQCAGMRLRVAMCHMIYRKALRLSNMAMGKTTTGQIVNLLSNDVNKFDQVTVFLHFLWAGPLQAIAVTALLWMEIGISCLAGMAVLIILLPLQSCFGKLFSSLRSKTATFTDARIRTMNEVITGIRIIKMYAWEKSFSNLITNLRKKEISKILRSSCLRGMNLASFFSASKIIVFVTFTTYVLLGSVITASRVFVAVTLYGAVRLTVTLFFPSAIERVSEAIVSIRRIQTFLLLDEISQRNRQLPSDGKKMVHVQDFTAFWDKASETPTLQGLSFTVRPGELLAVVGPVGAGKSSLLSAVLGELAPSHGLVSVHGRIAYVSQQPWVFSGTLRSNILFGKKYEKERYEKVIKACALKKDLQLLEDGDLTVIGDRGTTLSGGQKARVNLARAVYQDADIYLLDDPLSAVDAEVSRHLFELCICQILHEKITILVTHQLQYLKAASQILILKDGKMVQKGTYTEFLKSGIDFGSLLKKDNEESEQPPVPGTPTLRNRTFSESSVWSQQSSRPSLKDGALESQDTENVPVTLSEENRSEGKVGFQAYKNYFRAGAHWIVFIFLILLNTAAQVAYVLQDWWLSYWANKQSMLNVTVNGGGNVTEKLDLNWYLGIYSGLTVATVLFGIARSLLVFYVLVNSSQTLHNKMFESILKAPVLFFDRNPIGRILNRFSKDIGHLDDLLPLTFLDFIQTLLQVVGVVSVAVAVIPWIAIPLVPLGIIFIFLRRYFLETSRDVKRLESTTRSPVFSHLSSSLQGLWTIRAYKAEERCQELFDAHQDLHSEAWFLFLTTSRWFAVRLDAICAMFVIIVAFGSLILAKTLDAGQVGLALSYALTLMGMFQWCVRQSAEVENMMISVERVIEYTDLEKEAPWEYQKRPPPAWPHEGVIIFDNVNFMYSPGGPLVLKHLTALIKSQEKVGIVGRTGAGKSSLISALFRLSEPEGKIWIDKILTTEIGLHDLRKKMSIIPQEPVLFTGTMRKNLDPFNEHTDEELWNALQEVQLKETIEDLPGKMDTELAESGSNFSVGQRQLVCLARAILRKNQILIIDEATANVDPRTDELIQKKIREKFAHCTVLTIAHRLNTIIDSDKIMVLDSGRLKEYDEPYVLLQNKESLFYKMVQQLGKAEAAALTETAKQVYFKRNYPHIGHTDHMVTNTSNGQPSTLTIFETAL
Text: In order to determine whether the observed difference in the [^3H]ADP uptake by the vesicles in the presence and absence of orthovanadate reflects a transmembrane movement rather than binding to the membrane surface, the influence of high osmolarity was investigated. […] In the presence of orthovanadate, 1 mol/l of sucrose only slightly influenced the [^3H]ADP association to the vesicles. […] Furthermore, the vanadate-sensitive ADP accumulation in the dense granular fraction of the sucrose gradient could be detected and was inhibited by dipyridamole, MK571 and cGMP (Table 1).
Transport of [^3H]ADP. An ATP-dependent transport of [3H]ADP (1 μmol/l) in the membrane vesicles was measured by rapid filtration, as is described for [^3H]cGMP, with the exception that the vesicles in incubation buffer supplemented with 0.4 mmol/l ATP, 10 mmol/l MgCl2 are incubated in the presence or absence of sodium orthovanadate (1 mmol/l). In order to investigate the effect of the osmolarity of the extra-vesicular medium, the vesicles were preincubated for 45 minutes at 4° C. in a 1 mol/l sucrose-containing buffer or in standard incubation buffer which contained 250 mmol/l of sucrose.
Dense platelet vesicles (100 μg of protein) were incubated with [3H]ADP (1 μmol/l) in the presence of 0.4 mmol/l of ATP or 0.4 mmol/l of ATP+1 mmol/l of orthovanadate for two minutes, and the difference in the vesicle-associated radioactivity was calculated. The compounds listed were added to the incubations with and without orthovanadate in the concentrations indicated. The difference is indicated as the percentage of the control (mean value+standard deviation of 3 determinations). The control value of the vanadate-sensitive [^3H]ADP transport in this experiment was […] of protein^−1 after 2 minutes.

MRP4 [2] = molecular target: T1, MRP4; experiment: [3H]ADP transport in crude platelet membrane vesicles; type: biochemical; details: ATP 0.4 mmol/l plus 1 mM orthovanadate versus ATP alone; crude membranes
Method: In order to determine whether ADP can be a substrate for MRP4-mediated, ATP-dependent transport, the uptake of [3H]ADP (1 μM) in platelet membrane vesicles (crude membranes) in the presence of 0.4 mmol/l of ATP was measured over a period of 2 minutes. […] If ATP was replaced by 5′-AMP or the non-hydrolyzable ATP analog AMPPNP, which was customarily used in control incubations in order to calculate the ATP-dependent component of the transport, approximately a three to four-fold higher background binding of the [^3H]ADP to the membranes was observed, which increased only slightly with time (not shown). […] In order to show the ATP dependence and simultaneously to ensure identical initial ADP concentrations, the transport was measured in the presence of ATP with or without 1 mM orthovanadate, an inhibitor of ATP hydrolysis. A time-dependent increase in the vesicle-associated radioactivity in the presence of ATP was observed, in spite of the fact that [^3H]ADP was diluted by simultaneous formation of unlabeled ADP. […]
Transport of [^3H]ADP. An ATP-dependent transport of [3H]ADP (1 μmol/l) in the membrane vesicles was measured by rapid filtration, as is described for [^3H]cGMP, with the exception that the vesicles in incubation buffer supplemented with 0.4 mmol/l ATP, 10 mmol/l MgCl2 are incubated in the presence or absence of sodium orthovanadate (1 mmol/l). […]

[^3H]ADP transport (% of control) (MRP4 [1]; 100 μM substance) | vanadate-sensitive ADP accumulation in the dense granular fraction of the sucrose gradient (MRP4 [1]) | [^3H]ADP transport (% of control) (MRP4 [1]; 10 μM substance) | vesicle-associated radioactivity ([3H]ADP) (MRP4 [2]) | Structure (SMILES)
28.7 ± 2.3 % of control | inhibited |  |  | Nc1nc2c(ncn2[C@@H]2O[C@@H]3COP(=O)(O)O[C@H]3[C@H]2O)c(=O)[nH]1 [cGMP, cyclic GMP]
8.8 ± 0.4 % of control | inhibited | 52.7 ± 5.2 % of control |  | OCCN(CCO)c1nc(N2CCCCC2)c2nc(N(CCO)CCO)nc(N3CCCCC3)c2n1 [Dipyridamole, dipyridamole]
 |  |  | significantly reduced | [Na+].[Na+].[Na+].[O]=[V]([O-])([O-])[O-] [orthovanadate, sodium orthovanadate]
40.7 ± 3.9 % of control | inhibited |  |  | CN(C)C(=O)CCSC(SCCC(=O)O)c1cccc(/C=C/c2ccc3ccc(Cl)cc3n2)c1 (centres unmarked) [MK571]
